Data on 26 molecules can be found in patent publication US8741934B2, “Inhibitors of ion channels” (Pfizer Limited, priority 2007, dated 2014).

Each structure is given as a SMILES string. Where only a bound is given, the exact number is not on record here.

The target in assay [1] is T1, hSCN3A sodium channels (Homo sapiens, UniProt Q9NY46).
T1 construct: expressed in transfected cells
The assay is described as follows: hSCN3A electrophysiology, whole-cell patch-clamp or PatchXpress 7000, estimated IC-50 (Table B). It counts as cell-based. As to conditions: read-out: SCN3A EIC-50. As to the method: Human Embryonic Kidney (HEK) cells were transfected with an hSCN3A construct using lipofectamine reagent (Invitrogen), using standard techniques. […] Clones were screened for expression using the whole-cell voltage-clamp technique.
HEK cells stably transfected with hSCN3A were maintained in DMEM medium supplemented with 10% heat-inactivated fetal bovine serum and 400 μg/ml G418 sulfate in an incubator at 37° C. with a humidified atmosphere of 10% CO2. […] For electrophysiological studies, cells were removed from the culture flask by brief trypsinization and replated at low density onto glass cover slips. Cells were typically used for electrophysiological experiments within 24 to 72 h after plating.
All recordings were made at room temperature (22-24° C.) using AXOPATCH 200B amplifiers and PCLAMP software (Axon Instruments, Burlingame, Calif.) or PatchXpress 7000 hardware and associated software (Axon Instruments, Burlingame, Calif.).
Current records were acquired at 20 to 50 KHz and filtered at 5 to 10 KHz.
HEK cells stably transfected with hSCN3A were viewed under Hoffman contrast optics and placed in front of an array of flow pipes emitting either control or compound-containing extracellular solutions. All compounds were dissolved in dimethyl sulfoxide to make 10 mM stock solutions, which were then diluted into extracellular solution to attain the final concentrations desired.
The voltage-dependence of inactivation was determined by applying a series of depolarizing prepulses (8 sec long in 10 mV increments) from a negative holding potential. The voltage was then immediately stepped to 0 mV to assess the magnitude of the sodium current. Currents elicited at 0 mV were plotted as a function of prepulse potential to allow estimation of the voltage midpoint of inactivation (V1/2). Cells were then voltage clamped at the empirically determined V1/2.
Compounds were tested for their ability to inhibit hSCN3A sodium channels by activating the channel with a 20 msec voltage step to 0 mV following an 8 second conditioning prepulse to the empirically determined V1/2 (Table B). Compound effect (% inhibition) was determined by difference in current amplitude before and after application of test compounds. […] Inhibition values <20% and >80% were excluded from the calculation.
In some cases electrophysiological assays were conducted with PatchXpress 7000 hardware and associated software (Molecular Devices Corp) (Table B). All assay buffers and solutions were identical to those used in conventional whole-cell voltage clamp experiments described above. hSCN3A cells were grown as above to 50%-80% confluency and harvested by trypsinization. Trypsinized cells were washed and resuspended in extracellular buffer at a concentration of 1×10^6 cells/ml. The onboard liquid handling facility of the PatchXpress was used for dispensing cells and application of test compounds. Determination of the voltage midpoint of inactivation was as described for conventional whole-cell recordings. Cells were then voltage-clamped to the empirically determined V1/2 and current was activated by a 20 msec voltage step to 0 mV.

Assay [2] addresses T1, hSCN3A sodium channels. Briefly: hSCN3A electrophysiology, Ionworks Quattro automated platform (Table C). It counts as cell-based. To be noted: for inhibition at 3 µM: read-out: SCN3A % INHIB HTS IWQ 3 μM; for inhibition at 10 µM: read-out: SCN3A % INHIB HTS IWQ 10 μM; for SCN3A INHIB INACT DRC EP IWQ EMAX: Emax of dose-response curve, inactivated state. The method in brief: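 HEK cells stably expressing hSCN3A were recorded in perforated-patch mode with 100 μg/ml amphotericin on Ionworks Quattro. The protocol used an inactivating step, a brief hyperpolarized partial recovery, then a depolarized test step. Inhibition was taken from current amplitude before versus after compound addition.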
For orientation: In patch-clamp work, channel activity is measured electrically.

[3] abbreviates: estimated IC-50, hSCN3A cells, whole-cell patch-clamp or PatchXpress 7000.

T1 sequence (Q9NY46 whole entry): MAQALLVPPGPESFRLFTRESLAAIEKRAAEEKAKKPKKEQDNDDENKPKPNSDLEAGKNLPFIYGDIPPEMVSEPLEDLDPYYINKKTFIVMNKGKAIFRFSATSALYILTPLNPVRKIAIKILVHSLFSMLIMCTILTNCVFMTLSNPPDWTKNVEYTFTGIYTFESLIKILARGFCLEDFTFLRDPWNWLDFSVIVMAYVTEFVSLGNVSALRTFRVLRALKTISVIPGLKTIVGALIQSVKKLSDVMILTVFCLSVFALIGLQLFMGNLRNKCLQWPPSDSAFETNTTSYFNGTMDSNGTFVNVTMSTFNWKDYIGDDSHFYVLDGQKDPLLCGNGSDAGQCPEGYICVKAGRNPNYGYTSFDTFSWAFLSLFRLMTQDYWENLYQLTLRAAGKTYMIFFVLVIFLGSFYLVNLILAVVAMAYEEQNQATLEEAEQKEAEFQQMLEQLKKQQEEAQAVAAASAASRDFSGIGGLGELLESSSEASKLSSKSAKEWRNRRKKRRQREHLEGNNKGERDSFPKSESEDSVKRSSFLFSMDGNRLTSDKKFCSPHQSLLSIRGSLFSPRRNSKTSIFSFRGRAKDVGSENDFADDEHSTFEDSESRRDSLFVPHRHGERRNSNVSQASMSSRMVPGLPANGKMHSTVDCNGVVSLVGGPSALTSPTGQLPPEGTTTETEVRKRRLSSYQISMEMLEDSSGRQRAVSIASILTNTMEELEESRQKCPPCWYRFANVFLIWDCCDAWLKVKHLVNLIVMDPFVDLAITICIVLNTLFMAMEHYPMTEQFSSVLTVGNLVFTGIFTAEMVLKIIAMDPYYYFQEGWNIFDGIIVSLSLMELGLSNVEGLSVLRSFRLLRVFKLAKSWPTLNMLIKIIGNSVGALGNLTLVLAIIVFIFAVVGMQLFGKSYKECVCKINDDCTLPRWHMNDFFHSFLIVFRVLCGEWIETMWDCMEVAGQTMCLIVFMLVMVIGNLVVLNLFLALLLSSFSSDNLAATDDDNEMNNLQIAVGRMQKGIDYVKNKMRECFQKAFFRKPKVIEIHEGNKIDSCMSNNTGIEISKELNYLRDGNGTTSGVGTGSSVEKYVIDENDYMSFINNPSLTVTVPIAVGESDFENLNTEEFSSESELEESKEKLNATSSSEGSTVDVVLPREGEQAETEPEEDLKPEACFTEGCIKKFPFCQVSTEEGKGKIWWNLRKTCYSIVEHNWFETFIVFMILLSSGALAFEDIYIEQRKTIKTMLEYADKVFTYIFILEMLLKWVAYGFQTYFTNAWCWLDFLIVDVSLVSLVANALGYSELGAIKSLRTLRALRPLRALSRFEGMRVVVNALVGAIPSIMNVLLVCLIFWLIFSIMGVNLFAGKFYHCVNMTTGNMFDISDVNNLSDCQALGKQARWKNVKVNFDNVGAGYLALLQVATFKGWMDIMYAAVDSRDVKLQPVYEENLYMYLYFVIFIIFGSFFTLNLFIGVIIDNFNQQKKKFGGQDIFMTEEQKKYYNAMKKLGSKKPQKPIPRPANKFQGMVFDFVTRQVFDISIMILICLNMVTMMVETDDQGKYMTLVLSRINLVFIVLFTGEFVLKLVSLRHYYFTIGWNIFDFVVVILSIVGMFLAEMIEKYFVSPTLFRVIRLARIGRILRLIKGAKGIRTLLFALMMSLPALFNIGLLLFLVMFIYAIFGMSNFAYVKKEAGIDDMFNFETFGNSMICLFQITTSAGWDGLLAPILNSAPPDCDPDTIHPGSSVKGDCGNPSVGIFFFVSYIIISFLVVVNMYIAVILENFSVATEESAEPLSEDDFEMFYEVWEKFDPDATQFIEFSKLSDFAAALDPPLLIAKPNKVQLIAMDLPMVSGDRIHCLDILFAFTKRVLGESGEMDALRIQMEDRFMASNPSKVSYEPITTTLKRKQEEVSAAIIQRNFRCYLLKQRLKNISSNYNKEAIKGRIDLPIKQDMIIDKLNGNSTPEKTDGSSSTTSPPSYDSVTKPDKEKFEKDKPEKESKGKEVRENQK

On to `COc1ccccc1CNC(=O)c1ccc(S(=O)(=O)Nc2nccs2)cc1` [Example 174, N-(2-methoxybenzyl)-4-[(1,3-thiazol-2-ylamino)sulfonyl]benzamide], for which, in assay [1] (setting [3]), the IC50 is 3970 nM.

Regarding `O=C(NCc1ccc(C(F)(F)F)c(F)c1)c1ccc(S(=O)(=O)Nc2ncc(Cl)s2)cn1` [Example 345, 5-{[(5-Chloro-1,3-thiazol-2-yl)amino]sulfonyl}-N-[3-fluoro-4-(trifluoromethyl)benzyl] pyridine-2-carboxamide], the IC50 in assay [1] was 270 nM.

In the case of `O=C(c1ccc(S(=O)(=O)Nc2nccs2)cc1)N1CC[C@@H](Oc2ccccc2Cl)C1` [Example 247, 4-{[(3R)-3-(2-chlorophenoxy)pyrrolidin-1-yl]carbonyl}-N-1,3-thiazol-2-yl-benzenesulfonamide], the IC50 in assay [1] (setting [3]) is over 1000 nM.

On to `O=C(NCc1ccc(C(F)(F)F)cc1)c1ccc(S(=O)(=O)Nc2ncc(Cl)s2)c(F)c1` [Example 315, 4-{[(5-Chloro-1,3-thiazol-2-yl)amino]sulfonyl}-3-fluoro-N-[4-(trifluoromethyl)benzyl] benzamide], for which the IC50 in assay [1] (setting [3]) was 110 nM.

Regarding `O=C(NCc1ccc(C(F)(F)F)c(F)c1)c1ccc(S(=O)(=O)Nc2nccs2)cc1F` [Example 333, 2-Fluoro-N-[3-fluoro-4-(trifluoromethyl)benzyl]-4-[(1,3-thiazol-2-ylamino)sulfonyl] benzamide], in assay [1] (setting [3]), the IC50 was 210 nM.

`N#Cc1cc(S(=O)(=O)Nc2ncc(Cl)s2)ccc1C(=O)NCc1ccc(C(F)(F)F)cc1` [Example 347, 4-{[(5-Chloro-1,3-thiazol-2-yl)amino]sulfonyl}-2-cyano-N-[4-(trifluoromethyl)benzyl]benzamide]: in assay [1] (setting [3]), the IC50 is 1620 nM.

Consider `O=C(NCc1ccc(OC(F)(F)F)c(F)c1)c1ccc(S(=O)(=O)Nc2nccs2)cn1` [Example 343, N-[3-fluoro-4-(trifluoromethoxy)benzyl]-5-[(1,3-thiazol-2-ylamino)sulfonyl] pyridine-2-carboxamide], for which the IC50 in assay [1] (setting [3]) is 310 nM.

With `O=C(NCc1ccc(F)c(C(F)(F)F)c1)c1ccc(S(=O)(=O)Nc2ncc(Cl)s2)cc1` [Example 34, 4-{[(5-Chloro-1,3-thiazol-2-yl)amino]sulfonyl}-N-[4-fluoro-3-(trifluoromethyl)benzyl]benzamide], the IC50 in assay [1] (setting [3]) was 90 nM.

Turning to `O=C(NCc1cccc(OC(F)(F)F)c1)c1ccc(S(=O)(=O)Nc2nccs2)c(F)c1` [Example 296, 3-Fluoro-4-[(1,3-thiazol-2-ylamino)sulfonyl]-N-[3-(trifluoromethoxy)benzyl]benzamide], the IC50 in assay [1] (setting [3]) was 190 nM.

For the molecule `Cc1cc(C)nc(CC2CCCCCN2C(=O)c2ccc(S(=O)(=O)Nc3nccs3)cc2)c1` (stereo not shown) [Example 246, 4-({2-[(4,6-Dimethylpyridin-2-yl)methyl]azepan-1-yl}carbonyl)-N-1,3-thiazol-2-yl-benzenesulfonamide], in assay [2] (3 μM compound), the inhibition at 3 µM is -0.31%. In addition, the inhibition at 10 µM in assay [2] (10 μM compound) is -1.47%.

For `O=C(c1ccc(S(=O)(=O)Nc2nccs2)cc1)N1CCCC1Cc1ccccc1` (stereo not shown) [Example 197, 4-[(2-Benzylpyrrolidin-1-yl)carbonyl]-N-1,3-thiazol-2-yl-benzenesulfonamide], the inhibition at 3 µM in assay [2] (3 μM compound) turned out to be 17.6%. For the same molecule, in assay [2] (10 μM compound), the inhibition at 10 µM was 17.4%.

Turning to `O=C(c1ccc(S(=O)(=O)Nc2nccs2)cc1)N1CCCC1c1ccccc1Cl` (stereo not shown) [Example 215, 4-{[2-(2-Chlorophenyl)pyrrolidin-1-yl]carbonyl}-N-1,3-thiazol-2-yl-benzenesulfonamide], in assay [2] (3 μM compound), the inhibition at 3 µM was determined as 30.5%. For the same molecule, the inhibition at 10 µM in assay [2] (10 μM compound) was 51.9%. The “SCN3A INHIB INACT DRC EP IWQ EMAX” value in assay [2] amounted to 64.7. Also, the IC50 in assay [2] (read-out: SCN3A IWQ IC-50) worked out at 8410 nM.

With `CCOc1ccccc1CNC(=O)c1ccc(S(=O)(=O)Nc2nccs2)cc1` [Example 89, N-(2-ethoxybenzyl)-4-[(1,3-thiazol-2-ylamino)sulfonyl]benzamide], the inhibition at 3 µM in assay [2] (3 μM compound) was 14%. Besides, in assay [2] (10 μM compound), the inhibition at 10 µM was 48.2%.

In the case of `CC(Cc1ccc(C(F)(F)F)cc1)NC(=O)c1ccc(S(=O)(=O)Nc2nccs2)cc1` (stereo not shown) [Example 130, N-{1-methyl-2-[4-(trifluoromethyl)phenyl]ethyl}-4-[(1,3-thiazol-2-ylamino)sulfonyl]benzamide], the inhibition at 3 µM in assay [2] (3 μM compound) amounted to 23.1%. For the same molecule, the inhibition at 10 µM in assay [2] (10 μM compound) worked out at 16.5%.

As to `CCc1ccc(C)nc1NC(=O)c1ccc(S(=O)(=O)Nc2nccs2)cc1` [Example 178, N-(3-ethyl-6-methylpyridin-2-yl)-4-[(1,3-thiazol-2-ylamino)sulfonyl]benzamide], in assay [2] (3 μM compound), the inhibition at 3 µM amounted to 2.71%. Further, the inhibition at 10 µM in assay [2] (10 μM compound) came to 1.55%.

For `O=C(c1ccc(S(=O)(=O)Nc2nccs2)cc1)N1CCC(Cc2ccccc2)C1` (stereo not shown) [Example 282, 4-[(3-Benzylpyrrolidin-1-yl)carbonyl]-N-1,3-thiazol-2-yl-benzenesulfonamide], the inhibition at 3 µM in assay [2] (3 μM compound) was 29.1%. Moreover, in assay [2] (10 μM compound), the inhibition at 10 µM came out at 11.4%.

On to `O=C(c1ccc(S(=O)(=O)Nc2nccs2)cc1)N(Cc1ccccc1)[C@@H](CO)c1ccccc1` [Example 208, N-benzyl-N-[(1R)-2-hydroxy-1-phenylethyl]-4-[(1,3-thiazol-2-yl-amino)sulfonyl]benzamide], for which the inhibition at 3 µM in assay [2] (3 μM compound) is 3.57%. The inhibition at 10 µM in assay [2] (10 μM compound) was -14.2%.

For the molecule `Cc1cccc(CC2CCCCN2C(=O)c2ccc(S(=O)(=O)Nc3nccs3)cc2)n1` (stereo not shown) [Example 242], the “SCN3A % INHIB HTS IWQ 3 μM” value in assay [2] (3 μM compound) was found to be 13.78%. Also, in assay [2] (10 μM compound), the “SCN3A % INHIB HTS IWQ 10 μM” value was determined as 8.48%.

For `N#Cc1cccc(OC2CCCN(C(=O)c3ccc(S(=O)(=O)Nc4nccs4)cc3)C2)c1` (stereo not shown) [Example 265, 4-{[3-(3-Cyanophenoxy)piperidin-1-yl]carbonyl}-N-1,3-thiazol-2-yl-benzenesulfonamide], in assay [2] (3 μM compound), the inhibition at 3 µM was 22.6%. Further, the inhibition at 10 µM in assay [2] (10 μM compound) was 44.3%. Moreover, the “SCN3A INHIB INACT DRC EP IWQ EMAX” value in assay [2] worked out at 32.2.

As to `O=C(NCCc1ccc(F)cc1)c1ccc(S(=O)(=O)Nc2nccs2)cc1` [Example 102, N-[2-(4-fluorophenyl)ethyl]-4-[(1,3-thiazol-2-ylamino)sulfonyl]benzamide], in assay [2] (3 μM compound), the inhibition at 3 µM stood at 22.4%. For the same molecule, in assay [2] (10 μM compound), the inhibition at 10 µM worked out at 37.2%.

For the molecule `O=C(NCc1cccc(OC(F)(F)F)c1)c1ccc(S(=O)(=O)Nc2nccs2)c(Cl)c1` [Example 285, 3-Chloro-4-[(1,3-thiazol-2-ylamino)sulfonyl]-N-[3-(trifluoromethoxy)benzyl]benzamide], in assay [2] (3 μM compound), the inhibition at 3 µM amounted to 15.1%. For the same molecule, in assay [2] (10 μM compound), the inhibition at 10 µM was determined as 39.1%.

Regarding `Cc1cccc(C2CCCN2C(=O)c2ccc(S(=O)(=O)Nc3nccs3)cc2)c1` (stereo not shown) [Example 228, 4-{[2-(3-Methylphenyl)pyrrolidin-1-yl]carbonyl}-N-1,3-thiazol-2-yl-benzenesulfonamide], in assay [2] (3 μM compound), the inhibition at 3 µM was 19.3%. The inhibition at 10 µM in assay [2] (10 μM compound) amounted to 3.53%.

With `CC(C)N(Cc1ccccc1)C(=O)c1ccc(S(=O)(=O)Nc2nccs2)cc1` [Example 187, N-benzyl-N-isopropyl-4-[(1,3-thiazol-2-ylamino)sulfonyl]benzamide], the inhibition at 3 µM in assay [2] (3 μM compound) came out at 5.69%. Moreover, the inhibition at 10 µM in assay [2] (10 μM compound) was 4.2%.

For `O=C(c1ccc(S(=O)(=O)Nc2nccs2)cc1)N1CCCC(COc2ccccc2)C1` (stereo not shown) [Example 267, 4-{[3-(Phenoxymethyl)piperidin-1-yl]carbonyl}-N-1,3-thiazol-2-yl-benzenesulfonamide], the inhibition at 3 µM in assay [2] (3 μM compound) was 30.1%. The inhibition at 10 µM in assay [2] (10 μM compound) worked out at 23.1%.

Consider `O=C(NCc1cc(C(F)(F)F)ccc1F)c1ccc(S(=O)(=O)Nc2nccs2)cc1` [Example 76, N-[2-fluoro-5-(trifluoromethyl)benzyl]-4-[(1,3-thiazol-2-ylamino)sulfonyl]benzamide], for which the inhibition at 3 µM in assay [2] (3 μM compound) was found to be 35.8%. Also, the inhibition at 10 µM in assay [2] (10 μM compound) was 52.1%.

With `O=C(NCC1(c2ccccc2)CCCC1)c1ccc(S(=O)(=O)Nc2nccs2)cc1` [Example 121, N-[(1-phenylcyclopentyl)methyl]-4-[(1,3-thiazol-2-ylamino)sulfonyl]benzamide], the inhibition at 3 µM in assay [2] (3 μM compound) worked out at 31.1%. In addition, the inhibition at 10 µM in assay [2] (10 μM compound) was determined as 30.2%.
